Measurements: US20120040394A1, “MICROTUMOURS” (priority 2008, published 2012)

Test system: DLD1 cells
Assay: Effect of anti-cancer drug on cellular acidity (AO red fluorescence, flow cytometry) and cell growth
Assay type: cell-based, human
Settings: DLD1 versus NCl/Adr cells at a given dose; AO red fluorescence after 6 hours exposure; growth 3 days after addition of drug, hemacytometer and trypan blue exclusion; FIG. 5
Method: Cells plated at 25% confluency were exposed to various doses of the drug for 6 hours and stained with AO (1 μg/ml, final concentration) for 30 minutes. Cells were washed 3× with PBS to remove residual stain, trypsinized to obtain a liquid suspension and assessed on a flow cytometer (FACSCalibur, Becton Dickinson San Jose Calif.). The red fluorescence of AO emanating from the cells was recorded on a linear scale in the cytometer's FL2 channel (emission filter >600 nm). A total of 30K cells were collected for post acquisition analysis with WinMDI Version 2.8 software (The Scripps Research Institute, La Jolla, Calif.). […] FIG. 5b plots the geometric mean of AO red fluorescence channel intensity against drug concentration for both DLD1 and NCl/Adr cells. In parallel cultures, cells were assessed for growth 3 days after the addition of drug (FIG. 5 c) —cells were enumerated with a hemacytometer and trypan blue exclusion staining.

CC(=O)O[C@H]1C(=O)[C@@]2(C)[C@H]([C@H](OC(=O)c3ccccc3)[C@]3(O)C[C@H](OC(=O)[C@H](O)[C@@H](NC(=O)c4ccccc4)c4ccccc4)C(C)=C1C3(C)C)[C@]1(OC(C)=O)CO[C@@H]1C[C@@H]2O [paclitaxel]
sensitivity of cancer cells to the drug (cell growth, reflected by acidic content of cells): DLD1 cells are more sensitive to paclitaxel than NCl/Adr
